Source: patent US20070021451A1, “Method for preventing or treating neurologic damage after spinal cord injury” (HAMAMATSU UNIVERSITY SCHOOL OF MEDICINE, priority 2005, published 2007)

System: Rabbit Model of Spinal Cord Ischemia
Assay: Histopathologic examination (HE staining, semiquantitative histologic score)
Assay type: in vivo, New Zealand White rabbits
Protocol: Twenty-six male New Zealand White rabbits weighting 2.2 to 3.0 kg were used in this experiment. Spinal cord ischemia was induced by occluding the abdominal aorta with […] for 20 minutes just distal to the renal arteries. Surgical preparation was conducted according to the method described in the literature, Terada H. et. al., J. Thorac. Cardiovasc. Surg. 2001; 122: 979-85. A 24-gauge venous catheter was placed in the marginal ear vein for drug administration. The rabbits were anesthetized with intravenous sodium pentobarbital (25 mg/kg) and allowed to breathe spontaneously. Lidocaine (0.5%) was administered at the site of the skin incision as local anesthesia. The left common carotid artery was cannulated with a 24-gauge catheter for monitoring the arterial pressure. Core body temperature was continuously monitored with a rectal probe and was maintained at 38.5° C. with the aid of heating lamp. The infrarenal abdominal aorta was exposed through a transperitoneal approach. After systemic heparinization (200 U/kg), spinal cord ischemia was induced by occluding the abdominal aorta with […] for 20 minutes just distal to the renal arteries and just above the aortic bifurcation. Then, the […] released, and the flank was closed. […] The rabbits were assigned randomly to 1 of the 4 groups and subjected to the treatment of (1) above in the following manner. The sham group (n=3) underwent the same operation without aortic occlusion. The control group (n=7) received saline (1 ml) intravenously 15 minutes before aortic occlusion. NS-7 (1 mg/kg) was administered intravenously as a bolus dose 15 minutes before aortic occlusion in group A (n=8) or just after releasing the […] onset of reperfusion) in group B (n=8). All animals were killed by means of a lethal injection of pentobarbital (200 mg/kg) 48 hours after operation. Spinal cords were quickly harvested and sectioned from the low thoracic level to the low lumbar level into the following 4 segments: low thoracic (LT=T10-T12), upper lumbar (UL=L1-L2), mid lumbar (ML=L3-L4), and low lumbar (LL=L5-L6). […]

Structure (SMILES): Cc1cc(-c2ccc(F)cc2)cc(OCCCCCN2CCCCC2)n1.Cl [NS-7, 4-(4-Fluorophenyl)-2-methyl-6-(5-piperidinopentyloxy)pyridine hydrochloride]
- Cellular damage in HE-stained sections (FIG. 3) (NS-7 before ischemia or at the onset of reperfusion, mid lumbar): minimal evidence of cellular damage
- Histologic changes in the spinal cords (group A or group B, mid lumbar and low lumbar levels): only slight changes
- Average histologic scores (group A or group B, mid lumbar and low lumbar levels, vs control group (FIG. 4)): significantly lower than those of the control group
